Test results taken from the supplement of paper PMC12076712.

Columns and labels:
Experiment in all cases: pIC50, kinobeads binding competition
[1] = target: EPHA2 (UniProt P29317); details: cell material: Lysate mix
Outline: (§1)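 Nine compound concentrations were tested, starting at 30 μM in 1:4 steps on live Jurkat cells (60 min, 37 °C, then lysis) or in 1:5 steps on Jurkat lysate or a 1:1:1:1 HEK293/K-562/HepG2/placenta lysate mix (60 min, 4 °C). Kinobeads-bound proteins were digested and quantified with TMT10 LC-MS/MS. pIC50 values are from logistic dose-response fits in the R drc package of fold changes relative to vehicle, from biological duplicates.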

[2] = target: T1, EPHA3 (UniProt P29320)
T1 sequence (whole entry): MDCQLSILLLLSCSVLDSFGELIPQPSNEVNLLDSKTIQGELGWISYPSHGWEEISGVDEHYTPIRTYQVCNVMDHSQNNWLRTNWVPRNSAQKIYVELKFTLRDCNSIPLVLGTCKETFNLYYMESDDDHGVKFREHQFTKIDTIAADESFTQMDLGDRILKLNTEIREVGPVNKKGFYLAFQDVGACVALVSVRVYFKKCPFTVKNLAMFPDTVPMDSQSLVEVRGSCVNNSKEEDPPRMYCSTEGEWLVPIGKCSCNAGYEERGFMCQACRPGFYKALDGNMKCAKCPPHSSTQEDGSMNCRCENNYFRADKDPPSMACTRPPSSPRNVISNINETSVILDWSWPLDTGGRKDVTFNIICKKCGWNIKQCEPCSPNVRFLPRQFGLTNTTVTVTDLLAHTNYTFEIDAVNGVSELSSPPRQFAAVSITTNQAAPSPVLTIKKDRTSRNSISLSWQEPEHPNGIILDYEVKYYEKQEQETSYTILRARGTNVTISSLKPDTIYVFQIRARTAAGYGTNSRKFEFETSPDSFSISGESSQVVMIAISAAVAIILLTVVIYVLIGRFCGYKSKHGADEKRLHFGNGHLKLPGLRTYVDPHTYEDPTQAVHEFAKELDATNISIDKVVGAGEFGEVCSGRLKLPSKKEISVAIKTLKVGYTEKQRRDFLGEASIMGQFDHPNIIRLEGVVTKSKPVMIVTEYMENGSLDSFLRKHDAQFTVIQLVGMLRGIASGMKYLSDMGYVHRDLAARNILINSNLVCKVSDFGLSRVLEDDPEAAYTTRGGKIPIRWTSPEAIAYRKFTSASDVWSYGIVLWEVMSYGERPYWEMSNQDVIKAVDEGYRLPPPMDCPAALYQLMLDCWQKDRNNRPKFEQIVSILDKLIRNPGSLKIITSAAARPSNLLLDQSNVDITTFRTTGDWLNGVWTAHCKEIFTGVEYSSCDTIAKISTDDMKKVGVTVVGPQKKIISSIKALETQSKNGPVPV
Outline: as §1

[3] = target: T2, UniProt O15530
T2 sequence (whole entry): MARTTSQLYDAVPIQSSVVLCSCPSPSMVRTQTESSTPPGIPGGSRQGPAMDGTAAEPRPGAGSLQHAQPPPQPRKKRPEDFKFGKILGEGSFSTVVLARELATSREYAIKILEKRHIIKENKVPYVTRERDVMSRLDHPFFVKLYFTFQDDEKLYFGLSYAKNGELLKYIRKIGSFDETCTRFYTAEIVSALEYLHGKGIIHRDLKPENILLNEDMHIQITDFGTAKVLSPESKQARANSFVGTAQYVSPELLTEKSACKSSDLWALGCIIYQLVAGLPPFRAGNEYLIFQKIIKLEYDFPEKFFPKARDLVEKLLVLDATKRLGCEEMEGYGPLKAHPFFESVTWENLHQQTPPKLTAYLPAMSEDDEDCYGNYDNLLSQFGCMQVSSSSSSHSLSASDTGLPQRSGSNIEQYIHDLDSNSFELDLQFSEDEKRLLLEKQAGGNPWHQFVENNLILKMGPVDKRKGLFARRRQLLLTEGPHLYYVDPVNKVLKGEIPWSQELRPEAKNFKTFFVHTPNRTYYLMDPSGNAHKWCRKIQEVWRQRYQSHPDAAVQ
Outline: as §1

[4] = target: UniProt Q9Y5S2; details: cell material: Lysate mix
UniProt Q9Y5S2, sequence (Q9Y5S2 whole entry): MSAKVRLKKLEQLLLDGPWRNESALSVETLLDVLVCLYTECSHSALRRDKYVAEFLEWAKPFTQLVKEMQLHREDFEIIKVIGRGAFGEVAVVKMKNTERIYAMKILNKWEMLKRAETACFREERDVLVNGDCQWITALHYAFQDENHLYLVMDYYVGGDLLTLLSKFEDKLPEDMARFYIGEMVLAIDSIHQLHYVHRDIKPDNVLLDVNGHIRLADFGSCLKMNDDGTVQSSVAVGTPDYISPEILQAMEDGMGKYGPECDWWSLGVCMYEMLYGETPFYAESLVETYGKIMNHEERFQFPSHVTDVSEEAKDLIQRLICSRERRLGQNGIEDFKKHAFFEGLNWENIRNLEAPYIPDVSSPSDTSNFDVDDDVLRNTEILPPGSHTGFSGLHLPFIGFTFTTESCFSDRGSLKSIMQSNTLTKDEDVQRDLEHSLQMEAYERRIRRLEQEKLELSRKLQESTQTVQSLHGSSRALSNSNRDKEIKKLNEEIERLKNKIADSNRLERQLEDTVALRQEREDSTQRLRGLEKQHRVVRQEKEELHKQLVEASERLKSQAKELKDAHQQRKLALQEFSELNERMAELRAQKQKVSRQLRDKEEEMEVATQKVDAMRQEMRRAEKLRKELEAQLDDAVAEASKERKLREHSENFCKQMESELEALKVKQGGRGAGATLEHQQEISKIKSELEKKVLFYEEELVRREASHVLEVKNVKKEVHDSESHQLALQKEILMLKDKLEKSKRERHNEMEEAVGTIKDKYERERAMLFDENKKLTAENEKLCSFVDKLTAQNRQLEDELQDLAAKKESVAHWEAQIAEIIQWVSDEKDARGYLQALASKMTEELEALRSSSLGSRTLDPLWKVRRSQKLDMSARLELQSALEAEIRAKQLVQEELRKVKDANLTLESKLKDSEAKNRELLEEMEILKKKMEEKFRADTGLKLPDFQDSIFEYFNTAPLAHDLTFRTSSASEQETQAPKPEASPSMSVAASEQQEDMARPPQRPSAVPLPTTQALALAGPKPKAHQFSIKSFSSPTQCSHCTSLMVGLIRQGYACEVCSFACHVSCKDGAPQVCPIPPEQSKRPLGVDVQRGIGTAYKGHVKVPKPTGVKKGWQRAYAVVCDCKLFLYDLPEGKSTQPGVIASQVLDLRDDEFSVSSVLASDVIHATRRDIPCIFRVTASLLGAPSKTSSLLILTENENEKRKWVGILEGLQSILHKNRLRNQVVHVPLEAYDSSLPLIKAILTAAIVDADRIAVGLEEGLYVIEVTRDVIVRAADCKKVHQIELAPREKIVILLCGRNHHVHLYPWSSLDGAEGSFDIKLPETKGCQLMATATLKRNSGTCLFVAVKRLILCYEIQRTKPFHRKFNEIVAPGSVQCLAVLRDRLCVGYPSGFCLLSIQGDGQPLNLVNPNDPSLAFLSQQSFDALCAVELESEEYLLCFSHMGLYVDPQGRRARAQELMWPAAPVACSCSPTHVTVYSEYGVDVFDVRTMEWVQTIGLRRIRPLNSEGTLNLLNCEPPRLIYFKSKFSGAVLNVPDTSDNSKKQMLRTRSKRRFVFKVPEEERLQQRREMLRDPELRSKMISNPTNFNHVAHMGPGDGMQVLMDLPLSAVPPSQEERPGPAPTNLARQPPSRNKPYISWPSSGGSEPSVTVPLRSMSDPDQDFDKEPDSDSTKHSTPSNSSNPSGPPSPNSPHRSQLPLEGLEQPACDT
Outline: as §1

EPHA2, sequence (P29317 whole entry): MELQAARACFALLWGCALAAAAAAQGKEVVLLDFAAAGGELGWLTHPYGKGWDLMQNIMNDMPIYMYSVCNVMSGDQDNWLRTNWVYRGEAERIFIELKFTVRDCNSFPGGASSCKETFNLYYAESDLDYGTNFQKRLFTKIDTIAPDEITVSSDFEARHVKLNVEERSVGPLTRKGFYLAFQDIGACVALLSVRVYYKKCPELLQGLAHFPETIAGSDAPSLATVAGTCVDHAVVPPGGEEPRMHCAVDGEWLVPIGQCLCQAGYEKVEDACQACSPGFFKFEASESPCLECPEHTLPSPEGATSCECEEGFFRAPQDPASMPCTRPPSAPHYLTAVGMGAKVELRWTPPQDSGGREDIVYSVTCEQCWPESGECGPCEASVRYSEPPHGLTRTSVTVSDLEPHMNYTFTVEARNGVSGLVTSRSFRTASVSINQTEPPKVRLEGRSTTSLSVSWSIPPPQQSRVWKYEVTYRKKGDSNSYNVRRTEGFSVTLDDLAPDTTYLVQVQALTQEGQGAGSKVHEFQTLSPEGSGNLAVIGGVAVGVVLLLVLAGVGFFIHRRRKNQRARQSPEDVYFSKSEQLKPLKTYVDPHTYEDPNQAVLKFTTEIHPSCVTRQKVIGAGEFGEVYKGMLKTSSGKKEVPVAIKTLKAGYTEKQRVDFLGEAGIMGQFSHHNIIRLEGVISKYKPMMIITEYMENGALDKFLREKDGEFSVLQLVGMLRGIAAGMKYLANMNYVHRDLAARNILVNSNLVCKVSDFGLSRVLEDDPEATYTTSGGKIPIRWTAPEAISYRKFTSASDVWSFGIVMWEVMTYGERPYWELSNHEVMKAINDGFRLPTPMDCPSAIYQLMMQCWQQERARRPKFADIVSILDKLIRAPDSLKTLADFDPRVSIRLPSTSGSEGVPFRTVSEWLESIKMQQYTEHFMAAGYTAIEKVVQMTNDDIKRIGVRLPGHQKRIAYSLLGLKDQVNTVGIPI

Row | Structure (SMILES) | pIC50 [1] | pIC50 ([2]; cell material: Jurkat cells) | pIC50 ([2]; cell material: Lysate mix) | pIC50 ([3]; cell material: Lysate mix) | pIC50 [4] | pIC50 ([2]; cell material: Jurkat lysate) | pIC50 ([3]; cell material: Jurkat lysate) | pIC50 ([3]; cell material: Jurkat cells)
1 | O=C(NCCNC(=O)c1cc(Nc2cc(C3CC3)[nH]n2)nc(N2CCN(Cc3ccc(S(=O)(=O)F)cc3)CC2)n1)OC1CC/C=C/CCC1 (stereo not given) | < 4.52 | < 4.52 | < 4.52 | < 4.52 | < 4.52 | < 4.52 | < 4.52 | –
2 | CCNC(=O)c1cc(Nc2cc(C3CC3)[nH]n2)nc(N2CCN(Cc3ccc(S(=O)(=O)F)cc3)CC2)n1 | < 4.52 | – | < 4.52 | < 4.52 | < 4.52 | – | – | –
3 | CCNC(=O)c1cc(Nc2cc(C)[nH]n2)nc(N2CCN(Cc3ccc(S(=O)(=O)F)cc3)CC2)n1 | < 4.52 | – | < 4.52 | < 4.52 | < 4.52 | – | – | –
4 | C#CCNC(=O)c1cc(Nc2cc(C3CC3)[nH]n2)nc(N2CCN(Cc3ccc(S(=O)(=O)F)cc3)CC2)n1 | < 4.52 | – | < 4.52 | < 4.52 | < 4.52 | < 4.52 | < 4.52 | 5.5

Continued, in another order:

Row | pIC50 [1] | pIC50 ([2]; cell material: Jurkat cells) | pIC50 ([2]; cell material: Lysate mix) | pIC50 ([3]; cell material: Lysate mix) | pIC50 [4] | Structure (SMILES) | pIC50 ([2]; cell material: Jurkat lysate) | pIC50 ([3]; cell material: Jurkat lysate) | pIC50 ([3]; cell material: Jurkat cells)
5 | < 4.52 | – | < 4.52 | < 4.52 | < 4.52 | Cc1cc(Nc2cc(C(=O)NCCNC(=O)OC3CC/C=C/CCC3)nc(N3CCN(Cc4ccc(S(=O)(=O)F)cc4)CC3)n2)n[nH]1 (stereo not given) | – | – | –
6 | < 4.52 | – | < 4.52 | < 4.52 | < 4.52 | C#CCNC(=O)c1cc(Nc2cc(C)[nH]n2)nc(N2CCN(Cc3ccc(S(=O)(=O)F)cc3)CC2)n1 | – | – | –
